Five compounds from patent US12157713B2, “Conjugated oligoelectrolytes as antimicrobial agents” (Nanyang Technological University, priority 2018, dated 2024) can be followed below.

Read-outs that look alike come from different tables or passages of the source.

The subject of data set [1] is Cryptococcus neoformans var. grubii H99; ATCC 208821. Description: Single-dose growth inhibition, Cn. Format: cell-based. As for the experimental part: Growth inhibition of C. albicans was determined by measuring the absorbance at 530 nm (OD530), while the growth inhibition of C. neoformans was determined by measuring the difference in absorbance between 600 and 570 nm (OD600-570), after the addition of resazurin (0.001 wt. % final concentration) and incubation at 35° C. for additional 2 hrs. The absorbance was measured using a Biotek Synergy HTX plate reader. The relative growth inhibition was calculated for each well, relative to that determined from a negative control (media only) and positive control (bacteria without inhibitors) on the same plate as references. A single dose of 32 μg/mL of COE (final concentration) was used for each test.
(§1) Percentage growth inhibition of an individual sample was calculated based on growth in a reference well determined from negative controls (media only) and positive controls (bacterial/fungal media without inhibitors). Negative inhibition values indicate that the growth rate (or OD600) is higher compared to the reference growth (bacteria/fungi only, set to 0% inhibition). The growth rates for all bacteria and fungi may vary at −/+10%, which were within the reported normal distribution of bacterial/fungal growth. Any significant variations (or outliers/hits) were identified by the modified Z-Score, and the active compounds were selected by a combination of inhibition values and Z-Score.
(§2) A M(i) value of >|2.5| (absolute) would classify the sample as outliers or hits. Active samples were denoted as compounds with inhibition values equal to or above 80% and absolute Z-Score above |2.5| for either replicate (n=2 on different plates). Partial active samples were denoted as compounds with inhibition values from 50% to <80%, or absolute Z-Score below |2.5|.

Data set [2] relates to E. coli K12. Description: SEM of COE-treated E. coli K12. Format: cell-based, Escherichia coli. The settings on record: 32 μg mL^−1 COE, 2 hrs. As for the experimental part:
E. coli K-12 was grown, collected and washed according to the procedure described above (in the uptake measurements). COE solutions (in PBS) were added to a PBS suspension of E. coli K12 (OD600=1.0) to achieve final COE concentrations of 32 μg/mL. After incubating for 2 hrs at room temperature under shaking (200 rpm), the microbes were immediately fixed with 2.5% glutaraldehyde solution at 4° C. overnight. 10 μL of the fixed bacteria suspension was spotted onto the SEM conducting paste and left to dry in air. The bacteria samples were dehydrated with a series of increasingly concentrated ethanol solution (20%-100%). After drying overnight, the samples were coated with platinum and imaged with FESEM (JEOL JSM-6700F) to characterise the morphology of the samples.
Characterisation of treated E. coli K12 by scanning electron microscopy (SEM) COE-treated cells were characterised by SEM. E. coli K12 ([…]) were treated with 32 μg mL^−1 of each COE. […] This is consistent with the proposal that COE insertion disrupts membrane integrity and this effect is of a greater magnitude for COE-D8.

In data set [3] the test system is Acinetobacter baumannii ATCC 19606. The data set can be described thus: Single-dose growth inhibition, Ab. Format: cell-based. As for the experimental part: Inhibition of bacterial growth was determined by measuring the absorbance at 600 nm (OD600), using a Tecan M1000 Pro monochromator plate reader. Growth inhibition was calculated for each well, relative to the reference growths determined from a negative control (media only) and positive control (bacteria without inhibitors) incubated in the same plate. A single dose of 32 μg/mL of COE (final concentration) was used for each test.
as §1, §2

Data set [4] deals with E. coli K12. Description: Epifluorescence imaging of COE-treated E. coli K12. Format: cell-based, Escherichia coli. The settings on record: 32 μg/mL COE; excitation 365 nm, emission 445/50 nm. As for the experimental part:
E. coli K-12 was grown, collected and washed according to the procedure described above (in the uptake measurements). COE solutions (in PBS) were added to a PBS suspension of E. coli K12 (OD600=1.0) to achieve final COE concentrations of 32 μg/mL. After incubating for 2 hrs at room temperature under shaking (200 rpm), a drop of suspension was placed on a microscope slide with a cover slip (#1.5, 0.17 mm thickness) and imaged using an inverted widefield epifluorescence microscope with Plan-Apochromat 100x/1.4 phase contrast with oil immersion lens (Carl Zeiss Axio Observer Z1 Inverted Microscope). The fluorescence microscopy images were observed by collecting the fluorescence signal of COEs using the DAPI dye channel (filter set 49 DAPI with excitation peak at 365 nm and emission at 445/50 nm). The bright field images of cells were obtained at exact same location using phase contrast transmitted light technique (Plan-Apochromat 100x/1.4 phase contrast with oil immersion lens). The cell images treated by different COEs were obtained under identical conditions with the matching irradiation frequency and exposure time.
Epi-fluorescence images of the COE-treated E. coli K12 cells were acquired by excitation at λ=365 nm and collecting emission at λ=445/50 nm.

A short description of data set [5]: DSC of treated unilamellar vesicles. The following applies: POPE:POPG 85:15 vesicles. As for the experimental part: POPE (1-palmitoyl-2-oleoyl-phosphatidylethanolamine) and POPG (1-palmitoyl-2-oleoyl-phosphatidylglycerol) were purchased as chloroform stocks from Avanti Polar Lipids. POPE and POPG were mixed to a molar ratio of 85:15 and dried under a gentle stream of nitrogen. The lipid cake obtained was further desiccated for overnight to obtain a thin lipid film. Rehydration of the dried film was carried out by adding 25 mM Tris, 150 mM NaCl, pH 7.5, to a concentration of 4.3 mg/mL, followed by incubation at 45° C. for 2 hrs, under constant stirring using a magnetic stirrer at around 300 rpm. To prepare the unilamellar vesicles, the vesicles suspension was repeatedly extruded through a polycarbonate membrane of 100 nm pores (21 times) at 45° C. The extruded vesicle sample was kept at 4° C. till further use. The vesicle solution was diluted to 0.86 mg/mL with buffer (25 mM Tris, 150 mM NaCl, pH 7.5) or the COE solution (25 mM Tris, 150 mM NaCl, pH 7.5) before the DSC measurements.
Unilamellar vesicles composed of 1-palmitoyl-2-oleoylphosphatidylethanolamine (POPE) and 1-palmitoyl-2-oleoylphosphatidylglycero (POPG) in a molar ratio of 85:15 were prepared in accordance to the general method “Preparation of Small Unilamellar Vesicles” and were used as a generic bacterial model membrane (G. J. Gabriel, et al., Mater. Sci. Eng. R 2007, 57, 28-64).
When subjected to DSC, the main gel-to-liquid-crystal transition peaks broadened after incubation with 8 μg mL^−1 of COE-D8 (FIG. 7a). For COE-D6, a higher concentration (16 μg mL^−1) was needed to change the initial trace (FIG. 7b). […] The perturbation to the cooperative transition of the lamellar phase reflects varying degrees of membrane intercalation. This observation correlates well with solubility and the alkyl chain length (Table 1a). Due to its lower aqueous solubility, COE-D8 is likely to partition more readily into hydrophobic domains of the lipid bilayer, leading to the weakened phase transition observed in the vesicles.

Data set [6] is described as follows: Solubility in PBS / aqueous solubility. Format: physicochemical.
The mark [7] stands for this setting: ATCC208821, read-out: Growth inhibition Cn.
[8] abbreviates: ATCC19606, read-out: Growth inhibition Ab.
The mark [9] stands for this setting: aqueous buffer, in PBS, read-out: Solubility in PBS.
Setting [10] is: PBS (aqueous solubility), read-out: aqueous solubility.
Setting [11] is: ATCC208821, 32 μg/mL single dose, n=2, read-out: Growth inhibition Cn.
[12] abbreviates: ATCC19606, 32 μg/mL single dose, n=2, read-out: Growth inhibition Ab.

A word on the inhibition: it is the percentage by which the read-out fell short of the control. For orientation: solubility means the concentration that dissolves in the medium under given conditions. Consider `C[N+](C)(C)CCCCOc1ccc(/C=C/c2ccc(OCCCC[N+](C)(C)C)cc2)cc1` [COE-D4], for which the inhibition at 32 µg/mL in data set [1] (setting [7]) is above 80%; in data set [3] (setting [8]), below 50%. Also, in the data set with E. coli K12 [2], the “Morphology of treated E. coli K12 by SEM” value is “rod-shaped cells with smooth outer surfaces”. Moreover, in the data set on E. coli K12 [4], the “Fluorescence intensity of treated E. coli K12 cells relative to background” value was “indistinct image”. Further, in data set [5], the “Concentration needed to change the gel-to-liquid-crystal transition peak (DSC)” value is above 32 µg/mL. In addition, the solubility in data set [6] (setting [9]) was 3100 µg/mL.

Consider `C[N+](C)(C)CCCCCCOc1ccc(/C=C/c2ccc(OCCCCCC[N+](C)(C)C)cc2)cc1` [COE-D6], for which the inhibition at 32 µg/mL in data set [1] (setting [7]) is above 80%; in data set [3] (setting [8]), below 50%. Further, the “Morphology of treated E. coli K12 by SEM” value in the data set with E. coli K12 [2] is “pitting and membrane rupture”. In addition, the “Fluorescence intensity of treated E. coli K12 cells relative to background” value in the data set with E. coli K12 [4] is reported as “intermediate fluorescence intensity”. Besides, the “Concentration needed to change the gel-to-liquid-crystal transition peak (DSC)” value in data set [5] came out at 16 µg/mL. For the same compound, the solubility in data set [6] (setting [10]) and in data set [6] (setting [9]) was 240 µg/mL throughout.

Regarding `C[N+](C)(C)CCCCCCCCOc1ccc(/C=C/c2ccc(OCCCCCCCC[N+](C)(C)C)cc2)cc1` [COE-D8], the inhibition at 32 µg/mL in data set [1] (setting [7]) and in data set [3] (setting [8]) was above 80% in each case. Moreover, the “Morphology of treated E. coli K12 by SEM” value with E. coli K12 [2] is “pitting and membrane rupture”. For the same compound, the “Fluorescence intensity of treated E. coli K12 cells relative to background” value with E. coli K12 [4] is reported as “highest fluorescence intensities”. Moreover, the “Concentration needed to change the gel-to-liquid-crystal transition peak (DSC)” value in data set [5] was determined as 8 µg/mL. Moreover, the solubility in data set [6] (setting [9]) was found to be 65 µg/mL.

Turning to `CN(C)CC[N+](C)(C)CCCCCCOc1ccc(/C=C/c2ccc(OCCCCCC[N+](C)(C)CCN(C)C)cc2)cc1` [COE-D62N], the inhibition at 32 µg/mL in data set [1] (setting [11]) and in data set [3] (setting [12]) was above 80% in each case. The solubility in data set [6] (setting [10]) is above 4000 µg/mL.

Regarding `CN(C)CC[N+](C)(C)CCCCCCCCOc1ccc(/C=C/c2ccc(OCCCCCCCC[N+](C)(C)CCN(C)C)cc2)cc1` [COE-D82N], the inhibition at 32 µg/mL in data set [1] (setting [11]) and in data set [3] (setting [12]) was above 80% each time.
